Assay results taken from patent publication US7347997B1, “Method of using a feedstuff additive” (priority 1998, dated 2008).
Where two headings read alike, the source gives them in different places.

Legend:
[1] = test system: chicken lymphocytes
[2] = test system: weaned piglets; details: pig, in vivo

SMILES | concentration without any adverse effect on the cell activity ([1]; checking after 28 and after 44 hours) | concentration without apparent change of proliferation foci / no negative effects on the cell culture ([1]; checking after 20 hours, listed as DOM) | concentration without apparent change of proliferation foci / no negative effects on the cell culture ([1]; checking after 20 hours, listed as deepoxymetabolite) | FCR [2] | Feedstuff intake/animal/day [2] | Losses (total) [2] | Weight increase/animal/day [2] | action on the cell culture [1] | concentration from which a marked adverse effect on the cell activity is present ([1]; checking after 20 hours)
C=C1[C@@H]2O[C@@H]3C=C(C)C(=O)[C@@H](O)[C@]3(CO)[C@@]1(C)C[C@H]2O [DOM-1] | 58 µg/mL | ≤ 58 µg/mL | 58 µg/mL | – | – | – | – | – | –
CC1=C[C@H]2O[C@@H]3[C@H](O)C[C@](C)([C@@]2(CO)[C@H](O)C1=O)[C@]31CO1 [DON, deoxynivalenol] | – | – | – | 1.79 | 226.3 | 0 | 126.2 g | marked damage to the cells | ≥ 0.625 µg/mL
